From a melting point compilation (Tetko et al.; mined from patent text by program, amines drawn as free bases though some values may be those of a salt)

Compound | melting point
N#CCN1C(=O)CC=C(C2(c3ccccc3)C=C3C=CC=CN3N2)N1C1=CCCCC1 (stereo not drawn) | 74 to 76 °C
O=C1CCCc2nc(C#Cc3cccnc3)ccc21 | 120 to 122 °C
O=C(O)CN1C(=O)c2cccc3c(C(=O)c4ccccc4)ccc(c23)C1=O | 310 to 312 °C
CCCCCCCCOc1ccc(-c2ncc(O)cn2)cc1 | 131 to 132 °C
O=[N+]([O-])c1cc(Cl)c(Oc2ccccc2)cc1NCc1cccc(C(F)(F)F)c1 | 140 to 142 °C
CCCCOc1cc(/C=C(\OCC)C(=O)O)ccc1OCCc1ccc(NS(=O)(=O)CCCC)cc1 | 164 °C
CCCC12C3=CCC4CC(OC(C)=O)CCC4(C)C3CCC1(C)C(C(C)CCCC(C)C)CC2O (stereo not drawn) | 104 °C
CC(C)(C)ON(O)C(=O)C(C)(C)CSc1ccc(Oc2ccc(Cl)cn2)cc1 | 90.8 to 91.9 °C
CNC(=O)N1CCC(C(Nc2ccc(F)cc2)c2ccc(F)cc2)CC1 (stereo not drawn) | 86 to 90 °C
COc1cccc2cc(CNCCNC(=O)C(C)(C)C)oc12 | 81 to 82 °C
O=C(O)/C=C/c1ccc(-c2nc3c(=O)n(CCC4=CCCCC4)c(=O)n(CCC4=CCCCC4)c3[nH]2)cc1 | > 250 °C
CCCC(C)(O)C(=O)Nc1ccnc(C(=O)OC)c1 (stereo not drawn) | 122 °C
CN1CCP(=O)(c2ccccc2)CC1 | 115 to 116 °C
OC1(c2ccccc2)CSC2=NCN(Cc3ccccc3)CN21 (stereo not drawn) | 97 to 99 °C
CS(=O)(=O)c1ccc(-c2cc(C#N)c(Br)nc2-c2ccc(F)cc2)cc1 | 230 to 232 °C
O=C(O)c1c(F)c(Cl)c(O)c(Cl)c1F | 102 to 105 °C
Cc1cccc(S(=O)(=O)Nc2onc(C)c2Br)c1 | 138 to 140 °C
CSc1ccc(-c2coc3ccc(-c4nnc([C@H](C)O)o4)cc23)cc1 | 164 to 165 °C
CC(C)(c1ccccc1)N1CC(O)=C(c2ccccc2)C1=O | 206 to 208 °C
CC1SC(=O)NN=C1c1ccc2c(c1)C(C)(C)C(=O)N2C(=O)c1ccccc1 (stereo not drawn) | 200 °C
O=C(Nc1cccc(S(=O)(=O)NCc2ccccc2)c1)c1cnn2c(C(F)F)cc(-c3ccc(C(F)(F)F)cc3)nc12 | 230 °C
COc1ccc(-c2c[nH]c(-c3cccnc3)n2)cc1 | 184 to 186 °C
CCOC(=O)c1cc2sc(C)c(N(C)S(=O)(=O)c3cccs3)c2[nH]1 | 161 °C
COc1ccc(Cn2nc(-c3ccc(OC)cc3)c(-c3ccncc3)cc2=O)cc1 | 143 °C
Nc1nccnc1C=O | 110 to 114 °C
OCc1ccc2c(Cl)cccc2c1 | 72 to 75 °C

Compound | melting point
CC(C)N1Cc2cccc(F)c2N(CCN2CC=C(c3c[nH]c4cc(F)ccc34)CC2)S1(=O)=O | 199 to 201 °C
OCCOc1cn(-c2ccc(F)cc2)c2cc(Cl)ccc12 | 97 to 98 °C
CN1C(=O)CN=C(c2ccccc2F)c2c1ccc(N)c2Cl | 126 °C
COc1ccc(S(=O)(=O)c2c(Br)cc(CC(=O)O)cc2Br)cc1C1CCCCC1 | 146 to 150 °C
Cc1cnn(-c2ncc(C(=O)N3Cc4cccn4Cc4ccccc43)c(C(F)(F)F)n2)c1 | 214 to 217 °C
COc1ccc2c(c1OC)CCC1=C2CCC(=O)N1 | 231 °C
C=CCN(C(=O)OCc1ccccc1)c1cc(F)c(-c2cccnc2)c(F)c1 | 92 to 93 °C
CCn1c(C(c2ccccc2)c2ccccc2)nc(-c2ccncc2)c1-c1ccc(Cl)cc1 | 199 to 200 °C
CCOC(=O)c1ccc(OCCSc2ccccc2)cc1 | 50 to 51 °C
CC(C)(C)OC(=O)N1CCC(O)(CS)CC1 | 54 to 55 °C
COC(=O)c1cccc(C(=O)N(C)C)n1 | 90 to 92 °C
c1ccc(CN2CCN(c3nc4c(c(N5CCOCC5)n3)SCCC4)CC2)cc1 | 125 °C
Cc1cccc(C(=O)Nc2c[nH]nc2C(=O)NCCC(=O)O)n1 | 246 to 247 °C
CCOCc1nc2c(N)nc(C)c(C)c2n1CCOCc1ccncc1 | 143 to 145 °C
Cc1cc(NC(=O)c2cc(Cl)cc(C)n2)ccn1 | 162 °C
CCCC(O)(C=Cc1ccccc1)CC(=O)OC (stereo not drawn) | 43 °C
Cc1cccc(NC(=O)NCc2ccc(-c3n[nH]c4c3Cc3cc(CN5CCOCC5)ccc3-4)s2)c1 | 158 to 161 °C
CS(=O)(=O)NCCSc1cccc2nccn12 | 130 to 131 °C
C=C(c1ccc(Cl)cc1)c1ccc(NC(=O)OC(C)(C)C)c(C)c1 | 102 to 104 °C
Sc1cccc(CN2CCCCC2)c1 | 121 to 123 °C
O=c1[nH]c2cc(Cl)ccc2c(O)c1-c1ccc(Cl)cc1 | > 300 °C
CCOC(=O)C1=Cc2cc(SC)ccc2OC1C(F)(F)F (stereo not drawn) | 87.8 to 89.6 °C
COc1ccc(-c2cccc3[nH]c4c(c23)CCN(Cc2ccccc2)CC4)c(C)c1 | 177 to 178 °C
COc1cccc(NC(=O)CN2C(=O)c3ccccc3C2=O)c1 | 171 °C
FC(F)(F)c1ccccc1NC(=S)N1CCc2c(sc3c2C(c2ccccc2Cl)=NCc2nnc(Cc4ccccc4)n2-3)C1 | 239 to 240 °C
Cc1ccc(C(=O)c2ccc(C(C)C(=O)O)cc2)s1 (stereo not drawn) | 93.7 °C

Compound | melting point
CCN(Cc1ccc(Cl)cc1Cl)C(=O)n1oc(C)c(Cl)c1=O | 80.5 to 81.5 °C
CSc1ncc2cc(C)c(N)nc2n1 | 268 to 270 °C
Cc1ccc(OCCOS(N)(=O)=O)cc1 | 108 to 110 °C
CCOC(=O)C(=O)Nc1ccc2[nH]c(=O)oc2c1 | 180 to 186 °C
N#CC1=C(C2CCCCC2)Nc2n[nH]cc2C1c1cccc(C#N)c1Br (stereo not drawn) | 193 °C
CN1CC=C(c2c[nH]c3ccc(NC(N)=S)cc23)CC1 | 209 to 211 °C
COC(=O)c1cc(N(C)C(C)=O)cc(N(C)C(C)=O)c1 | 106 °C
COc1ccc(Cc2nc3c(c(OC)nn3C(C)CCCc3ccccc3)c(=O)[nH]2)cc1OC (stereo not drawn) | 148 °C
CS(=O)(=O)CC(=O)N[C@H]1CC[C@H](CCN2CCC(c3cccc4c3CCO4)CC2)CC1 | 211 °C
C[C@](O)(CBr)C(=O)Nc1ccc(C#N)c(C(F)(F)F)c1 | 124 to 126 °C
COc1ccc(C)cc1NC(=O)Nc1ccc(N2CCN(C(=O)Nc3ccc(OCCO)cc3C)CC2)nc1 | 189 to 190 °C
COCNC(=O)ON=C1SCOC1C (stereo not drawn) | 78 to 79 °C
Cc1cc(C#N)sc1-c1ccc2c(c1)C(C)(C)OC(C)N2 (stereo not drawn) | 145 to 146 °C
CCOP(=O)(/C=C/c1cn(C)nc1OCc1ccc(OCc2nc(-c3ccco3)oc2C)c(OC)c1)OCC | 72 to 73 °C
Cc1ccc2c(c1)C=Cc1cc(C)ccc1C2c1cn(-c2ccnc(NCC(=O)O)n2)c(=O)[nH]c1=S | 205 °C
CC(=O)OC1CSC(Oc2ccc(C)nc2[N+](=O)[O-])C(OC(C)=O)C1OC(C)=O (stereo not drawn) | 154 °C
Cc1cc2cc([N+](=O)[O-])ccc2o1 | 93 to 95 °C
OCC1OC(n2cnc3c(NN4CCCC4)nc(I)nc32)C(O)C1O (stereo not drawn) | 216 to 217 °C
CCCCn1nc(C)c(C(N)=O)c1Cc1ccc(-c2ccccc2-c2nnn[nH]2)cc1 | 204 to 208 °C
COc1cc2c(Nc3ccc(Sc4nccn4C)c(Cl)c3)c(C#N)cnc2cc1N(C)CCCN(C)C | 196 to 201 °C
O=S(=O)(c1cc(Cl)cc(Cl)c1)n1ccc2c(N3CCN(Cc4ccccc4)CC3)cccc21 | 162 to 163 °C
N#CC1=C2C(=NC1=O)c1c(Sc3ccc(Br)cc3)ccc3c(Sc4ccc(Br)cc4)ccc2c13 | 262 to 263 °C
CC(C)(COC(c1ccccc1)(c1ccccc1)c1ccccc1)C(=O)O | 153 to 158 °C
O=C(O)c1c(F)ccc([N+](=O)[O-])c1C(F)(F)F | 190 °C
N#CC(Nc1cc(Cl)c(Cl)cc1Cl)c1ccccc1 (stereo not drawn) | 124 °C
O=C(O)Cc1c(C(=O)O)c2cc(Oc3ccc(Cl)cc3)ccc2n1-c1ccccc1 | 202 to 204 °C

Compound | melting point
COc1ccc(-c2c(Cl)ncn2-c2ccc(S(=O)(=O)NC(C)(C)C)cc2)cc1F | 208 to 210 °C
CC1(C)C(=O)Nc2cc3[nH]c(-c4ccccc4)nc3cc21 | 195 to 220 °C
O=c1[nH]c(=O)n2c3c(cccc13)CCC2CO (stereo not drawn) | 205 to 207 °C
c1cncc(NCCCOc2cccc(CN3CCCCC3)c2)c1 | 120 to 122 °C
CC(C)(C)CNc1cc(N2CCNCC2)nc(N2CCCC2)n1 | 140 to 145 °C
C=CCOc1ccc(C=NO)c(O)c1 | 74 to 76 °C
O=C(O)c1cccc(-c2nc(-c3ccc(C(F)(F)F)cc3)co2)c1 | 206 to 208 °C
Nc1ncnc2[nH]cc(-c3ccccc3)c12 | 238 to 239 °C
CN1c2ccccc2-c2nccn2-c2ccccc21 | 194 to 197 °C
NCCNc1ccc(NCCO)cc1[N+](=O)[O-] | 112 °C
N#Cc1cc(-c2c(-c3ccccc3)nn3ccccc23)c[nH]c1=O | 312 to 314 °C
CN(Cc1cc2c(=O)c(C(=O)NCc3ccc(Cl)cc3)cn(C)c2o1)CC(O)c1ccoc1 (stereo not drawn) | 93 to 97 °C
O=C(CCl)NC(NC(=O)c1ccccc1)C(Cl)(Cl)Cl (stereo not drawn) | 211 to 213 °C
COn1ccn(C)c1=S | 56.9 to 57.5 °C
Cc1ccnc(N2C(=S)SCC2(C)O)c1 (stereo not drawn) | 119 °C
Cn1cc2c(n1)-c1sccc1N(C(=O)c1ccc(NC(=O)c3ccc(Cl)cc3Cl)cc1)CC2 | 265 to 267 °C
COc1cc2c(cc1OC)CC(=O)N(Cc1cccnc1)C=C2 | 144 to 146 °C
CCCCCCCCCCS(=O)(=O)N[C@H]1CCCNC(=O)C1 | 98 to 99 °C
Oc1ccc(Sc2cnnc3ccccc23)cc1 | 238 °C
CC(C)(C)OC(=O)COc1ccc(-c2c(Cl)c(CN3C(=O)CCC3=O)nc3sc4c(c23)CCS(=O)C4)cc1 (stereo not drawn) | 175 to 176 °C
O=c1oc2c(Cl)cccc2cc1S(=O)(=O)Nc1ccc(Br)cc1 | 202 to 204 °C
O=Cc1c(O)cccc1OCc1cccc(C(=O)O)c1 | 209 to 211 °C
CC(C)(C)c1ncc2cc(Cl)nc(Cl)n12 | 109 to 110 °C
CCn1ncc2c(NCc3ccccc3)c3ccc(OC)cc3nc21 | 163 to 164 °C
COC(=O)CC(CC(=O)OC)Sc1cc(OC)ccc1[N+](=O)[O-] | 91 °C
